How the values were obtained:
[1] = test system: fibrogenic cytokines such as TGF-β1, bFGF, PDGF, and EGF; conditions: Zhang S et al. 1998; cited from earlier work
[2] = test system: TNF-α; conditions: from macrophages and other cells; Cain et al. 1998; cited from earlier work
[3] = oral tablet and capsule forms, clinical trials; effects appear to be dose related; cited from earlier work
[4] = adverse events associated with pirfenidone therapy in patients; type: in vivo, patient; conditions: dosing escalation scheme described herein (up to 2,403 mg per day, full dosage about Day 15)
Experimental: As an investigational drug, pirfenidone is provided in tablet and capsule forms principally for oral administration. Various formulations have been tested and adopted in clinical trials and other research and experiments. […] Many of these effects can interfere with everyday activities and quality of life. These effects appear to be dose related. The adverse reactions associated with pirfenidone therapy are exacerbated when pirfenidone is administered at these higher doses.
The present invention overcomes the unmet clinical need by providing an improved, optimized dose escalation scheme for the administration of pirfenidone. The dose escalation scheme of the present invention provides pirfenidone in an amount such that the full maximum dosage is not reached for at least one week. In a preferred embodiment, the full maximum dosage of pirfenidone is not reached until about Day 15 of treatment. The method of the present invention allows for a maximum dosage of 2,403 mg of pirfenidone per day to be administered to a patient and also reduces the incidence of adverse events associated with the administration of pirfenidone by more accurately matching dose escalation with tolerance development in the patient. […]

## Cc1ccc(=O)n(-c2ccccc2)c1 [pirfenidone, 5-methyl-1-phenyl-2-(1H)-pyridone]
[1]
  excessive biosynthesis or release of various fibrogenic cytokines: inhibits
[2]
  synthesis and release of excessive amounts of TNF-α: blocks
[3]
  most common adverse reactions or events associated with pirfenidone therapy: gastrointestinal upset, nausea, fatigue, somnolence, dizziness, headache, and photosensitivity rash
[4]
  adverse events, such as somnolence and photosensitivity reaction, as the dosage escalates: decrease
